Patent US9603862B2, “Activation and activators of SIRT5” (CORNELL UNIVERSITY, priority 2009, dated 2017)
Like-named read-outs stand apart in the source and are kept apart here. Blank lines part the entries; values can stand above or below the compound they belong to.

Target: T1, SIRT5 (Homo sapiens, UniProt Q9NXA8)
T1 sequence (Q9NXA8 37-310): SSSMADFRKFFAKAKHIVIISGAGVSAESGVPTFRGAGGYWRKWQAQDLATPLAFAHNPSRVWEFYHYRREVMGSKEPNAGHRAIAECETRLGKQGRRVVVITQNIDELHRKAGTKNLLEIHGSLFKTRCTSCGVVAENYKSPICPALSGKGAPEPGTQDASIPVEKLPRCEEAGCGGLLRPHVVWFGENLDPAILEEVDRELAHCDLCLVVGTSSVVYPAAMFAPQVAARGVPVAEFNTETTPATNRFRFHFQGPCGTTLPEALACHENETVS
Test: SIRT5 deacetylation activation assay (radiolabelled NAD+, DEAE-Sephadex column, turnover with vs without activator)
Assay type: biochemical
Method: The reactions were processed using DEAE columns. […]
Reactions containing NAD^+ including [2,8A^−3H]-NAD^+, peptide substrate, with or without activator in 100 mM phosphate buffer (pH 7.5) were initiated by addition of SIRT5 enzyme to a concentration of 10 μM. Reactions were incubated at 37° C. for 1 h and quenched by addition of trifluoroacetic acid to pH 2. After centrifugation to remove the precipitates, reactions were loaded onto columns containing pre-equilibrated DEAE-Sephadex (equilibrated with 5 mM ammonium acetate pH 7). The reaction mixture was then eluted with eight fractions of 20 mM ammonium acetate pH 7 and three fractions of 300 mM ammonium acetate pH 7. The radioactivity contained in the eluents was then quantified by scintillation counter. Radiolabelled NAD^+ eluted in the 20 mM washes, while products ADPR and AADPR eluted in the 300 mM fractions. Radioactivity in the remaining NAD^+ fractions and the radioactivity in the product fractions were then converted to a turnover rate (1/s) by adjustment for specific radioactivity and enzyme concentration. The turnovers from the reaction with or without the activators were compared to show the percentage of activation.
Test compounds were assayed against SIRT5 as described in Example 1.

[1] = FIG. 4, 500 μM JB12, 500 μM NAD+, 1 mM of activator compound
[2] = FIG. 4, 500 μM JB12, 500 μM NAD+, 1 mM of activator compound, read-out: Km of activator for activation of SIRT5-catalyzed deacetylation
[3] = FIG. 3, varying concentrations of activator, 500 μM NAD+, 500 μM JB12, DEAE columns
[4] = FIG. 3, varying concentrations of activator, 500 μM NAD+, 500 μM JB12, DEAE columns, read-out: Km of activator for activation of SIRT5-catalyzed deacetylation (Michaelis Menten curve fitting)

SIRT5 % activated (at 160 μM test compound): 50% activated at 160 μM
Compound: COB(OC)c1ccc[n+]([C@H]2CC(O)[C@@H](COP(=O)([O-])O)O2)c1 (stereo partly drawn)

SIRT5 % activated (at 2.4 mM test compound): 90% activated at 2.4 mM
Compound: NC(=O)c1ccc[n+]([C@@H]2O[C@H](CO)C(O)C2(F)F)c1 (stereo partly drawn)

Compound: O=C(O)c1ccc[n+]([C@@H]2O[C@H](CO)C(O)C2O)c1 (stereo partly drawn)
SIRT5 % activated (at 800 μM test compound): 60% activated at 800 μM

SIRT5 % activated (at 800 μM test compound): 100% activated at 800 μM
Compound: NC(=O)c1ccc[n+]([C@@H]2O[C@H](CO)C(O)C2O)c1 (stereo partly drawn)

SIRT5 % activated (at 600 μM test compound): 40% activated at 600 μM
Compound: CCOC(=O)c1ccc[n+]([C@@H]2O[C@H](CO)C(O)C2O)c1 (stereo partly drawn)

SIRT5 % activated (at 600 μM test compound): 80% activated at 600 μM
Compound: COC(=O)c1ccc[n+]([C@@H]2O[C@H](CO)C(O)C2O)c1 (stereo partly drawn)

SIRT5 % activated (at 1 mM test compound): 75% activated at 1 mM
Compound: NC(=O)c1ccc[n+]([C@@H]2O[C@H](CO)C(O)C2Cl)c1 (stereo partly drawn)

Emax (FIG. 3, varying concentrations of activator, 500 μM NAD+, 500 μM JB12, DEAE columns, read-out: max activation of SIRT5 deacetylation): 200%
Compound: NC(=O)c1ccc[n+]([C@@H]2O[C@H](CO)[C@@H](O)[C@H]2O)c1 [NR, nicotinamide riboside]

Compound: O=C([O-])c1ccc[n+]([C@@H]2O[C@H](CO)[C@@H](O)[C@H]2O)c1 [NaR, nicotinic acid riboside]
max activation of SIRT5 deacetylation [1]: 160%
Km [2]: 821 µM

max activation of SIRT5 deacetylation [1]: 150%
Km [2]: 323 µM
Compound: CCOC(=O)c1ccc[n+]([C@@H]2O[C@H](CO)[C@@H](O)[C@H]2O)c1 [O-ethyl NR, ethyl nicotinate riboside]

Compound: COC(=O)c1ccc[n+]([C@@H]2O[C@H](CO)[C@@H](O)[C@H]2O)c1 [O-methyl NR, methyl nicotinate riboside]
max activation of SIRT5 deacetylation [1]: 190%
Km [2]: 93 µM

Compound: NC(=O)c1ccc[n+](C2O[C@H](CO)[C@@H](O)C2(F)F)c1 (stereo partly drawn) [gem-diF-NR, 1-(2′-deoxy-2′,2′-difluoro-ribofuranosyl)-nicotinamide]
max activation of SIRT5 deacetylation [3]: 120%
Km [4]: 50 µM

Compound: NC(=O)c1ccc[n+](C2O[C@H](CO)[C@@H](O)[C@H]2Cl)c1 (stereo partly drawn) [ribo-Cl-NR, 1-(2′-deoxy-2′-chloro-ribofuranosyl)-nicotinamide]
max activation of SIRT5 deacetylation [3]: 125%
Km [4]: 95 µM
